# Experimental data reported in patent US7608683B2, “Stress proteins and peptides and methods of use thereof” (The Regents of the University of California, priority 2000, dated 2009).
# Where a SMILES comes first, the peptide text is derived from it. The star is where a group is joined. Biotin = O=C1N[C@H]2[C@H](CS[C@H]2CCCCC(=O)*)N1
# Columns and labels:
# [1] = tested on: patients with RA; details: 15 RA patients, 0.25, 2.5 or 25 mg daily orally for 6 months
# Text: This study was a Phase I Immune Tolerization study conducted to determine whether in RA interplay between HLA and dnaJ-derived peptides there is maintained and/or stimulation of T cells which participate in autoimmune inflammation. The trial (number “n” of patients who completed=13) was designed in order to adhere to the American College of Rheumatology (ACR) 20 criteria for evaluation of efficacy.
# Data from Phase I: The data shown in FIGS. 11A-E and 12A-E stem from a Phase I trial in which a total of 13 human RA patients were treated with three different doses of dnaJP1 qd po for 6 months. In vitro T cell responses to dnaJP1 were monitored at monthly intervals by measuring T cell proliferation and cytokine production in patients treated with dnaJP1 or control molecules.
# We designed a pilot clinical trial to obtain information regarding both safety and immunological efficacy of the treatment. Enrollment criteria for this study included active RA as defined by the American College of Rheumatology, a disease duration <5 years and in vitro responsiveness to dnaJP1, defined as T cell proliferation and/or production of proinflammatory cytokines. DnaJP1 was given orally for 6 months. […]
# [2] = tested on: PBMC from patients with RA; details: 31 RA patient samples
# Experimental: In FIG. 13A, Stimulation Index (SI) (y-axis). […] The dots represent individual patients. Lines indicate median values.
# In FIG. 13B samples of 20 patients with recent onset RA and samples of 12 patients with OA were tested for T cell proliferation to the proteins and to the individual peptides.
# [3] = tested on: PBMCs from patients with RA; assay: T cell proliferation assay, PBMC of RA patients in the dnaJP1 trial; assay type: cell-based, human; details: negative control peptide
# Text: FIG. 20A-L Treatment-induced modulation of T cell responses to dnaJP1. PBMC immune responses to dnaJP and controls from patients enrolled in the trial (n=15). T cell-proliferative response after in vitro culture with dnaJP1(a) or an irrelevant altered peptide ligand (b) in a standard proliferation assay. Phytohemagglutinin (a, ▴) was used as a positive control for T cell proliferation. […] Intracellular production of IL-2, IFN-γ, and TNF-α in response to dnaJP1 (c, e, and g) or PADRE peptide (d-f and h, respectively) at day 0 assessed at monthly intervals during treatment. Cytokine production is expressed as the percentage of CD3/cytokine double-positive cells measured by FACS in antigen-stimulated cultures, nonstimulated cultures (y axis). Error bars represent SD of the mean. Intracellular production of IL-4 (i) and IL-10 (k) after in vitro culture with dnaJP1 or with PADRE (j and l) at days 0, 56, and 168 of the treatment period.
# T Cell Proliferation Assays. Peripheral blood mononuclear cells (PBMCs) were cultured in triplicate in […] u-shaped bottom wells (Costar, Cambridge, Mass.) at 5×10^5 cells per well for 120 h with or without antigen. […] Thymidine uptake was measured by using a liquid scintillation counter. Results are expressed as a mean cpm of triplicate cultures. The magnitude of the response is expressed as stimulation index: the mean cpm of stimulated/nonstimulated cultures. […]
# [4] = tested on: PBMC of subjects with JIA; assay: immunological recognition (T cell proliferation and/or cytokine production) in subjects with JIA; assay type: cell-based, human
# Text: The right Y-axis depicts the stimulation index SI, and the left Y-axis depicts the production of cytokines INF-γ and IL-10 in pg/ml.
# Immunological recognition of an antigen can be defined as antigen-specific T cell proliferation and/or antigen-specific cytokine production after culture with the specific antigens. In addition, in a very high percentage of subjects (ranging from 60 to 100%), T cell recognition of these pan DR binding hsp60 peptides could be detected (FIG. 9). This percentage can be considered extremely high if one considers both the failures of previous studies to determine T cell epitopes in JIA and the heterogenic HLA background in subjects with JIA.
# If one compares the identified peptides with peptides that previously have been identified through the rat model of arthritis, the superiority of the method used here becomes evident. In previous studies in the model of adjuvant arthritis, it has been shown that mycobacterial hsp60 peptide containing amino acids 256-270 could induce protection in Adjuvant Arthritis. Following this finding a lot of effort has been put in attempting to identify the presence of 256-270 specific T cells in subjects with JIA. Based on the data provided by the computer algorithm, a new peptide was designed that was compared to the 256-270 aa peptide. […]
# [5] = tested on: PBMC from patients with JDM; assay: T cell proliferation (thymidine incorporation), PBMC of Juvenile Dermatomyositis patients; assay type: cell-based, human; details: 10 micrograms/ml, 96 hours; active disease vs remission
# Text: FIG. 17 is a graph showing T cell proliferative responses of PBMC from patients with Juvenile Dermatomyositis (JDM) towards the hsp60 bacterial and human peptides of FIG. 5. Patients in remission (n=7); patients with active JDM (n=6).
# This example identifies in another pediatric disease a peptide from the pool whose recognition triggers regulatory type T cells. Thirteen patients with a definite diagnosis of JDM according to standard disease criteria, were included in this study. […] All antigens were cultured at 10 micrograms/ml. After 96 hours thymidine incorporation was measured. The results are expressed in FIG. 17 as stimulation index (SI). SI is defined as counts per minute (cpm) thymidine incorporation in cells cultured with an antigen divided by cpm of cells cultured in culture medium without antigen. […] Bars represents the mean SI for PBMC from JDM patients with either active disease or incomplete clinical remission.
# [6] = tested on: PBMC of subjects with JIA; assay type: cell-based, human; details: 72 hours culture, ELISA
Molecule,recognition (T cell proliferation) by RA patients [2],also measured
C[C@H](NC(=O)[C@H](C)NC(=O)[C@H](Cc1c[nH]cn1)NC(=O)CNC(=O)[C@H](Cc1ccc(O)cc1)NC(=O)[C@H](CCC(N)=O)NC(=O)[C@H](CC(=O)O)NC(=O)[C@H](Cc1ccc(O)cc1)NC(=O)[C@H](C)NC(=O)[C@H](C)NC(=O)[C@H](CCCNC(=N)N)NC(=O)[C@H](CCCCN)NC(=O)[C@H](CCC(N)=O)NC(=O)CCCC[C@@H]1SC[C@@H]2NC(=O)N[C@@H]21)C(=O)N[C@@H](Cc1ccccc1)C(=O)N[C@@H](CCC(=O)O)C(N)=O [dnaJP1] (Biotin-QKRAAYDQYGHAAFE-NH2),–,tolerability / side effects [1]: well tolerated because no significant side effects were reported
AYVLLSEKKISSIQS [P4],recognized,–
"DERAAYDQYGHAAFE (Biotin-DERAAYDQYGHAAFE-NH2; SMILES C[C@H](NC(=O)[C@H](C)NC(=O)[C@H](Cc1c[nH]cn1)NC(=O)CNC(=O)[C@H](Cc1ccc(O)cc1)NC(=O)[C@H](CCC(N)=O)NC(=O)[C@H](CC(=O)O)NC(=O)[C@H](Cc1ccc(O)cc1)NC(=O)[C@H](C)NC(=O)[C@H](C)NC(=O)[C@H](CCCNC(=N)N)NC(=O)[C@H](CCC(=O)O)NC(=O)[C@H](CC(=O)O)NC(=O)CCCC[C@@H]1SC[C@@H]2NC(=O)N[C@@H]21)C(=O)N[C@@H](Cc1ccccc1)C(=O)N[C@@H](CCC(=O)O)C(N)=O) [dnaJPv, altered peptide ligand, identical to dnaJP1 except for the two N-terminal amino acids; negative control]",–,proliferative T cell response in patients with RA [3]: does not induce a proliferative T cell response; proliferative T cell response in patients with RA ([3]; listed as dnaJpV): not stimulatory in patients
EAVLEDPYILLVSSK [P5],recognized,–
GEALSTLVLNRLKVG [P2],recognized,–
GEALSTLVVNKIRGT [P1],recognized,T cell responses as defined by T cell proliferation and cytokine production [4]: did induce T cell responses
IAGLFLTTEAVVADK [P7],recognized,–
KCEFQDAYVLLSEKK [P6],recognized,–
PYILLVSSKVSTVKD [P3],recognized,–
"VASLLTTAEVVVTEI (listed as Homo sapiens) [P8, residues 535-549 of human hsp60]",recognized,"recognition (T cell proliferation, SI) in JDM patients [5]: recognized by the patients during disease remission"
"mycobacterial hsp60 256-270: negative control peptide, mycobacterial hsp60 amino acids 256-270, protective in rat adjuvant arthritis",–,"antigen-specific cytokine production (IL-10, IFN-γ, TNF-α) [6]: did not induce any cytokine production"
